Some test systems named below: 786-0 renal; A549 NSCLC; HL-60(TB) leukemia; HT29 colon; NCI-H226 lung; NCI-H522 lung; OVCAR-5 ovarian; SK-MEL-2 melanoma; SK-MEL-5 melanoma.
What all share (assay): inhibition of tumour cell growth, NCI panel, 48 h

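Five compound concentrations were applied to cells in 96-well plates for 48 hours; endpoints were derived by simple linear interpolation of the resulting dose-response curve. The concentration for 50% growth inhibition is given as GI50. TGI denotes the concentration required for complete inhibition of growth.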

For `COc1ccc(C(=C(C#N)C#N)c2ccc(OC)cc2)cc1`, the TGI in the assay with 786-0 renal, in the assay with A549 NSCLC, in the assay on HL-60(TB) leukemia, with HT29 colon, in the assay with NCI-H226 lung and in the assay on NCI-H522 lung was above 100 µM in each case. Also, the TGI in the assay with OVCAR-5 ovarian and with SK-MEL-2 melanoma was above 100 µM each time.
`CN1CCN2c3ccccc3CC(C#N)(C#N)C2C1` (configuration not stated): the TGI in the assay with 786-0 renal, with A549 NSCLC, in the assay on HL-60(TB) leukemia, in the assay on HT29 colon, with NCI-H226 lung and with NCI-H522 lung was above 100 µM throughout. For the same molecule, the TGI with OVCAR-5 ovarian, in the assay with SK-MEL-2 melanoma and in the assay with SK-MEL-5 melanoma was above 100 µM each time.
Take `CC(=O)O[C@H]1CC[C@@]2(C)C(=CC[C@@H]3C2CC[C@]2(C)C(=O)NC(=O)CC32)C1` (some centres not stated): the TGI with 786-0 renal was above 100 µM; in the assay with A549 NSCLC it was above 100 µM; in the assay on HL-60(TB) leukemia it was above 100 µM; with HT29 colon, above 100 µM; in the assay on NCI-H226 lung, above 100 µM; in the assay on NCI-H522 lung, 86.2 µM. In addition, the TGI with OVCAR-5 ovarian, with SK-MEL-2 melanoma and with SK-MEL-5 melanoma was above 100 µM each time.
`O=C(/C=C/c1ccc[nH]1)c1ccccc1`: the TGI in the assay with 786-0 renal, in the assay with A549 NSCLC, in the assay with HL-60(TB) leukemia, in the assay on HT29 colon, in the assay on NCI-H226 lung and with NCI-H522 lung was above 100 µM each time. Also, the TGI in the assay on OVCAR-5 ovarian, with SK-MEL-2 melanoma and with SK-MEL-5 melanoma was above 100 µM throughout.
For `CN1C(=O)C(C)(C)NS1(=O)=O`, the TGI with 786-0 renal, with A549 NSCLC, with HL-60(TB) leukemia, with HT29 colon, in the assay on OVCAR-5 ovarian and in the assay on SK-MEL-2 melanoma was above 100 µM in each case. In the assay with SK-MEL-5 melanoma, the TGI is above 100 µM.
As to `CCOc1cccc2sc(N)nc12`, the TGI in the assay on 786-0 renal, in the assay with A549 NSCLC, in the assay with HL-60(TB) leukemia, in the assay on HT29 colon, with NCI-H226 lung and in the assay on NCI-H522 lung was above 100 µM each time. For the same molecule, the TGI in the assay on OVCAR-5 ovarian, with SK-MEL-2 melanoma and in the assay on SK-MEL-5 melanoma was above 100 µM in each case.
On to `C=C(c1ccccc1)[C@@]1(O)CCCC[C@H]1NC(c1ccccc1)c1ccccc1`, for which the TGI in the assay with 786-0 renal is 25.5 µM; with A549 NSCLC, 26.2 µM; in the assay on HL-60(TB) leukemia, 5.95 µM; in the assay on HT29 colon, 27.3 µM; with NCI-H226 lung, 22.6 µM; in the assay with NCI-H522 lung, 21.6 µM. Also, the TGI in the assay with OVCAR-5 ovarian worked out at 27 µM; with SK-MEL-2 melanoma, 27.4 µM; with SK-MEL-5 melanoma, 22.8 µM.
Consider `COc1cccc(-c2cc(C(=O)Nc3ccc(Cl)cc3)nc(N)n2)c1`, for which the TGI in the assay with 786-0 renal, in the assay with A549 NSCLC, in the assay with HL-60(TB) leukemia, in the assay with HT29 colon, in the assay on NCI-H226 lung and in the assay with NCI-H522 lung was above 100 µM throughout. Also, the TGI with OVCAR-5 ovarian, in the assay with SK-MEL-2 melanoma and with SK-MEL-5 melanoma was above 100 µM each time.
With `O=C1C[C@@H]2[C@@H](C=CC23CC3)N1O`, the TGI with 786-0 renal, in the assay with A549 NSCLC, in the assay with HL-60(TB) leukemia, with HT29 colon, in the assay on NCI-H226 lung and in the assay on NCI-H522 lung was above 100 µM throughout. Also, the TGI in the assay on OVCAR-5 ovarian, in the assay with SK-MEL-2 melanoma and in the assay on SK-MEL-5 melanoma was above 100 µM in each case.
For `CCOC(=O)C1Nc2ccc([N+](=O)[O-])cc2[C@H]2OCC[C@@H]12` (some centres not stated), the TGI in the assay with 786-0 renal, in the assay with A549 NSCLC, in the assay on HL-60(TB) leukemia, in the assay with HT29 colon, in the assay on NCI-H226 lung and in the assay on NCI-H522 lung was above 100 µM in each case. Moreover, the TGI with OVCAR-5 ovarian, with SK-MEL-2 melanoma and in the assay on SK-MEL-5 melanoma was above 100 µM throughout.
For the molecule `COc1ccc(-c2c(-c3cc4c(c(OC)c3OC)OCO4)noc2N)cc1`, the GI50 with 786-0 renal is 0.49 µM; in the assay on A549 NSCLC it was 0.544 µM; in the assay with HL-60(TB) leukemia, 0.214 µM; with HT29 colon, 0.279 µM; with NCI-H226 lung, 0.804 µM; with NCI-H522 lung, 0.081 µM. The GI50 in the assay with OVCAR-5 ovarian was 2.43 µM; in the assay with SK-MEL-2 melanoma it was 0.235 µM; with SK-MEL-5 melanoma, 0.311 µM. Also, the TGI in the assay with 786-0 renal is 41.6 µM; in the assay on A549 NSCLC it was above 100 µM; with HL-60(TB) leukemia it was 1.46 µM; in the assay on HT29 colon, 3.15 µM; with NCI-H226 lung, above 100 µM; in the assay with NCI-H522 lung, 0.432 µM. In addition, the TGI in the assay on OVCAR-5 ovarian is above 100 µM; with SK-MEL-5 melanoma it was above 69.4 µM.
As to `CN(C(=N)c1ccccc1)c1ccccc1`, the TGI with 786-0 renal, in the assay on A549 NSCLC, in the assay on HL-60(TB) leukemia, in the assay on HT29 colon, in the assay on NCI-H226 lung and in the assay on SK-MEL-2 melanoma was above 100 µM throughout. In the assay with SK-MEL-5 melanoma, this molecule had a TGI above 100 µM.
For the molecule `Nc1ncnc2c1ncn2C1OC(CO)CC1O` (configuration not stated), the TGI in the assay with 786-0 renal was 45.8 µM; in the assay on A549 NSCLC, above 100 µM; in the assay with NCI-H226 lung, above 100 µM; in the assay with NCI-H522 lung, 38.7 µM; with OVCAR-5 ovarian, above 100 µM; with SK-MEL-5 melanoma, above 100 µM.
With `CC12CCC(=O)N1c1cc([N+](=O)[O-])ccc1N2` (configuration not stated), the TGI with 786-0 renal, in the assay with A549 NSCLC, in the assay with HL-60(TB) leukemia, in the assay with HT29 colon, in the assay on NCI-H226 lung and in the assay on NCI-H522 lung was above 100 µM each time. Also, the TGI in the assay with SK-MEL-2 melanoma and in the assay on SK-MEL-5 melanoma was above 100 µM each time.
On to `[O-]c1ccccc1[C-]=Nc1ccccc1O.[O-]c1ccccc1[C-]=Nc1ccccc1O.[O]=[U]=[O]`, for which the GI50 in the assay on 786-0 renal was 13.1 µM; in the assay with A549 NSCLC, 16.2 µM; in the assay on HL-60(TB) leukemia it was 1.76 µM; in the assay with HT29 colon it was 16 µM; in the assay with NCI-H522 lung, 4.01 µM; in the assay on OVCAR-5 ovarian, 21 µM. Besides, the values for the GI50 in the assay with SK-MEL-2 melanoma and in the assay with SK-MEL-5 melanoma were 13.2 µM and 8.38 µM, respectively. Besides, the TGI is 35.9 µM in the assay with 786-0 renal; 43.9 µM in the assay on A549 NSCLC; 7.47 µM in the assay on HL-60(TB) leukemia; 95.3 µM in the assay with HT29 colon; 51.8 µM in the assay with NCI-H522 lung; above 100 µM in the assay on OVCAR-5 ovarian. The values for the TGI in the assay on SK-MEL-2 melanoma and with SK-MEL-5 melanoma were 37.3 µM and 43 µM, respectively.
With `COC(=O)c1ccc(CS(=O)(=O)c2ccccc2)cc1`, the TGI in the assay on 786-0 renal, in the assay with A549 NSCLC, in the assay with HL-60(TB) leukemia, in the assay with HT29 colon, in the assay on NCI-H226 lung and in the assay with OVCAR-5 ovarian was above 100 µM each time. Besides, the TGI with SK-MEL-2 melanoma and with SK-MEL-5 melanoma was above 100 µM in each case.
On to `Clc1cc2nc[nH]c2cc1Cl`, for which the TGI with 786-0 renal, in the assay with A549 NSCLC, in the assay on HL-60(TB) leukemia, with HT29 colon, in the assay on NCI-H226 lung and in the assay on OVCAR-5 ovarian was above 100 µM each time. Besides, the TGI with SK-MEL-2 melanoma is above 100 µM.
As for `CCOC(=O)NC(=O)c1cn(CC(=O)NCC(=O)NCC(=O)N2CCN(CCn3c(C)nc(C(N)=O)c3N)CC2)c(=O)[nH]c1=O`, the TGI in the assay with 786-0 renal, in the assay with A549 NSCLC, with HL-60(TB) leukemia, with HT29 colon, in the assay with SK-MEL-2 melanoma and in the assay on SK-MEL-5 melanoma was above 100 µM in each case.
As for `O=c1/c(=C/c2ccccc2O)sc2nc3ccccc3n12`, the TGI with 786-0 renal was above 100 µM; in the assay on A549 NSCLC it was above 100 µM; with HL-60(TB) leukemia, 26.8 µM; in the assay on HT29 colon, above 100 µM; in the assay with NCI-H226 lung, above 100 µM; in the assay with OVCAR-5 ovarian it was above 100 µM. Besides, the TGI in the assay on SK-MEL-2 melanoma and in the assay with SK-MEL-5 melanoma was above 100 µM each time.
For `OCC(O)C(O)C(O)c1nn[nH]n1` (configuration not stated), the TGI in the assay on 786-0 renal, in the assay on HL-60(TB) leukemia, with HT29 colon, with NCI-H226 lung, in the assay on NCI-H522 lung and in the assay on OVCAR-5 ovarian was above 100 µM throughout. Further, the TGI in the assay with SK-MEL-2 melanoma and in the assay with SK-MEL-5 melanoma was above 100 µM each time.
On to `CC(C)(C)c1cc(O)c2c(c1O)C(=O)CCC2`, for which the TGI was above 100 µM with 786-0 renal; above 100 µM with A549 NSCLC; 43.9 µM in the assay with HL-60(TB) leukemia; above 100 µM in the assay on HT29 colon; 39.2 µM in the assay with SK-MEL-5 melanoma.
In the case of `C/C(=N\NC(=O)C[n+]1ccccc1)c1sc(-c2nc(C)c(/C(C)=N/NC(=O)C[n+]3ccccc3)s2)nc1C`, the TGI in the assay on 786-0 renal, in the assay on A549 NSCLC, in the assay on HT29 colon, with NCI-H226 lung, in the assay on OVCAR-5 ovarian and in the assay with SK-MEL-2 melanoma was above 100 µM throughout. For the same molecule, the TGI in the assay with SK-MEL-5 melanoma is above 100 µM.
On to `O=C1C2c3[nH]c4ccccc4c3C3CCC(c4ccccc4)CC3C2C(=O)N1c1ccccc1` (configuration not stated), for which the TGI was above 100 µM in the assay on 786-0 renal; above 100 µM in the assay with A549 NSCLC; 71.1 µM with HL-60(TB) leukemia; above 100 µM in the assay on HT29 colon; above 100 µM in the assay on NCI-H226 lung; above 100 µM in the assay on OVCAR-5 ovarian. In addition, the TGI with SK-MEL-5 melanoma is above 100 µM.
